Series [1] relates to platelet aggregation induced by adenosine diphosphate (ADP). Description: ADP (20 µM)-induced platelet aggregation, light transmission aggregometry. It is filed as in vivo, human. Conditions: drug alone (Treatment E or H). As for the experimental part: (§1) PD assessments were performed on Days 1 (≤ 24 h) and 5 (≤ 72 h) of each period (Supplementary Table 8); assessments included aPTT[18], FXIc[18], and bleeding time (assessed according to the PPD® Laboratories [Austin, TX] procedure where a blood pressure cuff, situated above the incision site, provided pressure at 40 mmHg and blood from the incision was wicked with filter paper every 30 s until cessation to record bleeding time). In addition, AA (1 mM), ADP) (20 µM)-, and collagen (5 μg/ml)-induced platelet aggregation assays were performed using light transmission aggregometry (PPD® Laboratories) and performed on Days 1 and 5 (≤ 24 h) for only Period 1.

For series [2], the system named is platelet aggregation induced by collagen. As to the kind of experiment: Collagen (5 μg/ml)-induced platelet aggregation, light transmission aggregometry. Type of series: in vivo, human. The conditions noted are these: drug alone (Treatment E or H). The protocol:
as §1

In series [3] the test system is arachidonic acid (AA)-induced platelet aggregation. Description: AA (1 mM)-induced platelet aggregation, light transmission aggregometry. Type of series: in vivo, human. Conditions: drug alone (Treatment E or H). As for the experimental part: as §1
The test system of a further series is healthy participants. Description: Adverse events and bleeding-related AEs by treatment, phase I DDI study.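 Note: counts from medical review of adverse event and bleeding-related adverse event reports, collected at selected times across the dosing interval, single US site, randomised 1:1:1 to one study part.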
Series [4] in a line: Plasma pharmacokinetics (LC-MS/MS, noncompartmental; GMR by linear mixed-effects model).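 For all read-outs here: participants at one US clinical research site, randomized 1:1:1 to a single study part, with 90% CIs from a mixed-effects model on log-transformed PK parameters.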 The conditions noted are these: for Increase of AUC(TAU) / Increase of Cmax: Treatment I (with milvexian) vs Treatment H (aspirin alone); for Cmax / Tmax / AUC / half-life: human, plasma, oral; for AUC: AUC(TAU); for half-life: T1/2, arithmetic mean [n] (SD).
Procedure: (§2) The study (ClinicalTrials.gov Identifier: NCT03698513) was conducted at 1 clinical research center in the United States. […] Participants underwent screening evaluations to determine eligibility within 35 days of study drug administration, and eligible participants were randomly assigned 1:1:1 to a single part of the study.
(§3) All statistical analyses and calculations were performed using SAS® software (SAS Institute, Inc., Cary, North Carolina; version 9.3). All safety and plasma PK/PD data were summarized using descriptive statistics. Descriptive summaries were presented for continuous variables using number of subjects (N), mean, SD; median, minimum, and maximum. […] CIs were constructed using a linear mixed-effects model with treatment as a fixed effect and measurements within participants as repeated measures fitted to the log-transformed PK parameters.
For series [5] the following is noted: in vivo.
Procedure: as §2, §3
The mark [6] stands for this setting: geometric mean (90% CI), Day 1, Treatment A (milvexian + aspirin + clopidogrel), Part 1.
Where [7] appears, read: geometric mean (90% CI), Day 1, Treatment C (placebo + aspirin + clopidogrel), Part 1.
[8] abbreviates: geometric mean (90% CI), Day 1, Treatment H (placebo + aspirin), Part 3.
The mark [9] stands for this setting: geometric mean (90% CI), Day 1, Treatment I (milvexian + aspirin), Part 3.
Setting [10] is: geometric mean [n] (90% CI), Day 5, Treatment C (placebo + aspirin + clopidogrel), Part 1.
[11] abbreviates: geometric mean [n] (90% CI), Day 5, Treatment H (placebo + aspirin), Part 3.
Where [12] appears, read: median (range), Day 1, Treatment A (milvexian + aspirin + clopidogrel), Part 1.
[13] abbreviates: median (range), Day 1, Treatment C (placebo + aspirin + clopidogrel), Part 1.
The mark [14] stands for this setting: median (range), Day 1, Treatment H (placebo + aspirin), Part 3.
Where [15] appears, read: median (range), Day 1, Treatment I (milvexian + aspirin), Part 3.
Where [16] appears, read: median [n] (range), Day 5, Treatment C (placebo + aspirin + clopidogrel), Part 1.
Setting [17] is: median [n] (range), Day 5, Treatment H (placebo + aspirin), Part 3.

Structures are written as SMILES. Marks after values point to notes of the source that are not given here.

Procedure for healthy participants: Participants underwent screening evaluations to determine eligibility within 35 days of study drug administration, and eligible participants were randomly assigned 1:1:1 to a single part of the study.
Safety assessments were performed at selected times throughout the dosing interval (Supplementary Table 7). The assessments were based on medical review of AE and bleeding-related AE reports, and the results of vital sign measurements, ECG measurements, physical examinations, and clinical laboratory tests.

As for `CC(=O)Oc1ccccc1C(=O)O` [Aspirin, acetylsalicylic acid, reference compound], the “Inhibition of ADP-induced aggregation compared with baseline” value in series [1] is ~ 15%. The “Inhibition of collagen-induced aggregation compared with baseline” value in series [2] is ~ 25%. The “Inhibition of AA-induced aggregation compared with baseline” value in series [3] is reported as ~ 95%. Also, the Anal fissure hemorrhage with healthy participants (Part 3 (Treatments G-I)) was 0 n (%). For the same compound, in the series on healthy participants (Part 3 (Treatments G-I)), the Contusion is 0 n (%). In addition, the Deaths in the series on healthy participants (Part 3 (Treatments G-I)) is on record as 0 n (%). In addition, in the series with healthy participants (Part 3 (Treatments G-I)), the “Discontinuations due to AEs” value is 0 n (%). Moreover, the Epistaxis with healthy participants (Part 3 (Treatments G-I)) is on record as 1 (2.6)^‡‡ n (%). The Gingival bleeding in the series with healthy participants (Part 3 (Treatments G-I)) is recorded as 0 n (%). Moreover, the “Serious AEs” value in the series on healthy participants (Part 3 (Treatments G-I)) is on record as 0 n (%). In addition, the “Total participants with an AE” value in the series with healthy participants (Part 3 (Treatments G-I)) was 9 (23.7) n (%). The “Total participants with bleeding event(s)” value in the series on healthy participants (Part 3 (Treatments G-I)) is 1 (2.6) n (%). In addition, the “Vessel puncture site bruise” value in the series on healthy participants (Part 3 (Treatments G-I)) is reported as 0 n (%). The “Events of epistaxis reported by a participant” value with healthy participants (bleeding AE) came out at 1 events. For the same compound, in the series on healthy participants (by treatment, all parts), the “Percentage of participants reporting AEs” value amounted to 23.7%. Further, the “Increase of AUC(TAU)” value turned out to be 24% in series [4] (Day 1) and 19% in series [4] (Day 5). The results for the “Increase of Cmax” value in series [4] (Day 1) and in series [4] (Day 5) were 40% and 33%, respectively. For the same compound, the Cmax came to 3050 ng/mL in series [4] (setting [6]); 2970 ng/mL in series [4] (setting [7]); 2450 ng/mL in series [4] (setting [8]); 3440 ng/mL in series [4] (setting [9]); 2890 ng/mL in series [4] (setting [10]); 2670 ng/mL in series [4] (setting [11]). For the same compound, the Tmax in series [4] (setting [12]) came out at 1 h; in series [4] (setting [13]) it was 1 h; in series [4] (setting [14]) it was 0.5 h; in series [4] (setting [15]), 0.5 h; in series [4] (setting [16]) it was 0.5 h; in series [4] (setting [17]), 0.508 h.
Consider `O=C(O)[C@H](c1ccccc1Cl)N1CCc2sccc2C1` [Clopidogrel acid], for which, in series [5] (human), the “Mean T1/2” value is “approximately 8 h”. Also, the “Reduction of Cmax” value in series [5] was found to be 14%.
In general, half-life refers to the time in which the quantity being followed falls by half. As to `O=C(O)c1ccccc1O` [Salicylic acid, salicylic acid], the AUC is 92700 ng·h/mL in series [4] (geometric mean [n] (90% CI), Day 1, Treatment A (milvexian + aspirin + clopidogrel), Part 1); 93500 ng·h/mL in series [4] (geometric mean [n] (90% CI), Day 1, Treatment C (placebo + aspirin + clopidogrel), Part 1); 93300 ng·h/mL in series [4] (geometric mean [n] (90% CI), Day 1, Treatment H (placebo + aspirin), Part 3); 93600 ng·h/mL in series [4] (geometric mean [n] (90% CI), Day 1, Treatment I (milvexian + aspirin), Part 3); 92000 ng·h/mL in series [4] (setting [10]); 92500 ng·h/mL in series [4] (setting [11]). The Cmax in series [4] (setting [6]) came out at 17600 ng/mL; in series [4] (setting [7]), 18100 ng/mL; in series [4] (setting [8]), 16500 ng/mL; in series [4] (setting [9]), 16300 ng/mL; in series [4] (setting [10]) it was 17300 ng/mL; in series [4] (setting [11]), 16500 ng/mL. The half-life in series [4] (Day 1, Treatment A (milvexian + aspirin + clopidogrel), Part 1) is 2.21 h; in series [4] (Day 1, Treatment C (placebo + aspirin + clopidogrel), Part 1), 2.25 h; in series [4] (Day 1, Treatment H (placebo + aspirin), Part 3) it was 2.4 h; in series [4] (Day 1, Treatment I (milvexian + aspirin), Part 3), 2.39 h; in series [4] (Day 5, Treatment C (placebo + aspirin + clopidogrel), Part 1) it was 2.23 h; in series [4] (Day 5, Treatment H (placebo + aspirin), Part 3), 2.39 h. For the same compound, the Tmax amounted to 2 h in series [4] (setting [12]); 2 h in series [4] (setting [13]); 2.03 h in series [4] (setting [14]); 2 h in series [4] (setting [15]); 2.02 h in series [4] (setting [16]); 3 h in series [4] (setting [17]).

These data come from paper PMC11258331 (Scientific Reports, 2024).
